# Literature values, collected in patent publication US20070128276A1 (PANACEA BIOTEC LTD., priority 1999, published 2007).
# Key:
# [1] = test system: yeast-induced fever; details: rats with yeast-induced fever
# [2] = animal studies
# [3] = test system: prostaglandin synthesis; details: in vitro
# [4] = test system: renal prostaglandin synthesis; details: rats
# [5] = test system: plasma proteins
structure (smiles),measurement,setting,value
CS(=O)(=O)Nc1ccc([N+](=O)[O-])cc1Oc1ccccc1 [Nimesulide],antipyretic potency versus reference drugs,[1],"superior antipyretic potency to indomethacin, ibuprofen, aspirin and paracetamol (acetaminophen)"
same,ulcerogenicity versus reference NSAIDs,[2],"less ulcerogenic than aspirin, indomethacin, naproxen, piroxicam and ibuprofen"
same,oral drug absorption,,nearly complete
same,effect of concomitant food on absorption,"oral, concomitant administration of food","may decrease the rate, but not the extent of absorption"
same,inhibition of prostaglandin synthesis,[3],relatively weak inhibitor
same,effect on renal prostaglandin synthesis,[4],little effect
same,bound to plasma proteins,[5],99%
